Source: PMC7351026, “Serum Half-Lives for Short- and Long-Chain Perfluoroalkyl Acids after Ceasing Exposure from Drinking Water Contaminated by Firefighting Foam” (Environmental Health Perspectives, 2020)

Tests used:
[1] = PFAS levels in serum samples of airport employees (LC/MS/MS); settings: for Serum level in the first samples, median (range) / Relative composition of PFAS in serum, molar concentration basis / Relative composition of PFAS in serum, weight basis / Serum concentration, molar basis / Serum concentration, weight basis: all 26 airport employees; for Relative composition of PFAS in serum, molar concentration basis / Relative composition of PFAS in serum, weight basis: first serum samples; for Serum concentration, molar basis / Serum concentration, weight basis: median of first serum samples
How it was run: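 LC/MS/MS quantification (BEH C18, 5 mM ammonium acetate water:methanol to methanol gradient) after protein precipitation of 25 μL serum with isotopically labeled internal standards, FBS-matrix calibration. Samples stored at −80°C, collected at monthly intervals from September 2018 and run together in a single batch.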

[2] = Individual serum elimination rate and half-life (linear regression per employee); settings: individual estimate; for half-life: human, serum, oral, HL (half-life);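 for HL (half-life): half-life in years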
Protocol: Serum PFAS concentrations were log-transformed. Time was calculated as the elapsed days between supply of clean bottled water and […] blood sampling. We assumed one compartment, first-order elimination kinetics. In this kinetic model, the body is considered as one homogeneous volume in which mixing is instantaneous and from which PFAS could be absorbed, transferred, and eliminated according to the rate of elimination that is proportional to the concentration of PFAS in the body. Two methods were used to estimate serum elimination rate constant (k) and half-life for each PFAS:
Method 2: For estimation of individual k, linear regression was used to derive the slope ( β ) of the logarithm of serum concentrations vs. time for each employee. The negative value of the slope ( −β ) for each individual was equivalent to the individual k, and individual serum elimination half-life was calculated as ln2/k for each PFAS. If β was positive (i.e., PFAS concentrations tended to increase over the five samplings), the half-life was not calculated.

[3] = 1st sampling (September 2018), count 17
[4] = 2nd sampling (October 2018), count 17
[5] = 3rd sampling (November, 2018), count 17
[6] = 4th sampling (December 2018), count 16
[7] = 5th sampling (January 2019), count 16
[8] = employees participated in first blood sampling and repeated blood and urine sampling, N=17
[9] = employees participated in first blood sampling only, N=9, 11-14 d after end of exposure

O=C(O)C(F)(F)C(F)(F)C(F)(F)C(F)(F)C(F)(F)C(F)(F)F [PFHpA, perfluoroheptanoic acid]
Serum PFAS level, 25 percentile [1, 3]: 0.45
Serum PFAS level, 75 percentile [1, 3]: 1.1
Serum PFAS level, Max [1, 3]: 2.2
Serum PFAS level, Median [1, 3]: 0.53
Serum PFAS level, Min [1, 3]: 0.20
Serum PFAS level, 25 percentile [1, 4]: 0.18
Serum PFAS level, 75 percentile [1, 4]: 0.83
Serum PFAS level, Max [1, 4]: 2.0
Serum PFAS level, Median [1, 4]: 0.33
Serum PFAS level, Min [1, 4]: 0.07
Serum PFAS level, 25 percentile [1, 5]: 0.09
Serum PFAS level, 75 percentile [1, 5]: 0.75
Serum PFAS level, Max [1, 5]: 2.0
Serum PFAS level, Median [1, 5]: 0.27
Serum PFAS level, Min [1, 5]: 0.08
Serum PFAS level, 25 percentile [1, 6]: 0.09
Serum PFAS level, 75 percentile [1, 6]: 0.72
Serum PFAS level, Max [1, 6]: 1.8
Serum PFAS level, Median [1, 6]: 0.15
Serum PFAS level, Min [1, 6]: 0.05
Serum PFAS level, 25 percentile [1, 7]: < LOD
Serum PFAS level, 75 percentile [1, 7]: 0.50
Serum PFAS level, Max [1, 7]: 1.4
Serum PFAS level, Median [1, 7]: 0.10
Serum PFAS level, Min [1, 7]: < LOD
Serum level in the first samples, median (range) [1]: 0.46 (0.07–2.2) ng/mL
PFAS in first serum sample, median (range) [1, 8]: 0.53 (0.20–2.2) ng/mL
PFAS in first serum sample, median (range) [1, 9]: 0.17 (0.07–1.3) ng/mL
Initial serum PFAS level, max ([1]; females (N=7)): 2.2 ng/mL
Initial serum PFAS level, median ([1]; females (N=7)): 0.46 ng/mL
Initial serum PFAS level, min ([1]; females (N=7)): 0.08 ng/mL
Relative composition of PFAS in serum, molar concentration basis [1]: 0.5%
Relative composition of PFAS in serum, weight basis [1]: 0.4%
Initial serum PFAS level, Max ([1]; males (N=19)): 2.0 ng/mL
Initial serum PFAS level, Min ([1]; males (N=19)): 0.07 ng/mL
Initial serum PFAS level, median ([1]; males (N=19)): 0.45 ng/mL
Serum concentration, molar basis [1]: 0.0013
Serum concentration, weight basis [1]: 0.46
half-life ([2]; subject 1, 5 samples): 110 days
half-life ([2]; subject 2, 5 samples): 73 days
half-life ([2]; subject 3, 5 samples): 146 days
half-life ([2]; subject 4, 5 samples): 73 days
half-life ([2]; subject 5, 5 samples): 183 days
half-life ([2]; subject 6, 4 samples): 73 days
half-life ([2]; subject 7, 5 samples): 36.5 days
half-life ([2]; subject 8, 5 samples): 36.5 days
half-life ([2]; subject 9, 5 samples): 36.5 days
half-life ([2]; subject 10, 5 samples): 110 days
half-life ([2]; subject 11, 5 samples): 110 days
half-life ([2]; subject 12, 5 samples): 36.5 days
half-life ([2]; subject 13, 5 samples): 36.5 days
half-life ([2]; subject 14, 4 samples): 36.5 days
half-life ([2]; subject 15, 5 samples): 73 days
half-life ([2]; subject 16, 5 samples): 256 days
half-life ([2]; subject 17, 5 samples): 36.5 days
Elimination rate ([2]; subject 1, 5 samples): 2.1 yearly
Elimination rate ([2]; subject 2, 5 samples): 3.7 yearly
Elimination rate ([2]; subject 3, 5 samples): 1.7 yearly
Elimination rate ([2]; subject 4, 5 samples): 3.2 yearly
Elimination rate ([2]; subject 5, 5 samples): 1.3 yearly
Elimination rate ([2]; subject 6, 4 samples): 4.1 yearly
Elimination rate ([2]; subject 7, 5 samples): 4.6 yearly
Elimination rate ([2]; subject 8, 5 samples): 5.4 yearly
Elimination rate ([2]; subject 9, 5 samples): 7.8 yearly
Elimination rate ([2]; subject 10, 5 samples): 2.2 yearly
Elimination rate ([2]; subject 11, 5 samples): 2.6 yearly
Elimination rate ([2]; subject 12, 5 samples): 6.7 yearly
Elimination rate ([2]; subject 13, 5 samples): 5.4 yearly
Elimination rate ([2]; subject 14, 4 samples): 6.6 yearly
Elimination rate ([2]; subject 15, 5 samples): 3.9 yearly
Elimination rate ([2]; subject 16, 5 samples): 0.9 yearly
Elimination rate ([2]; subject 17, 5 samples): 5.2 yearly

O=S(=O)(O)C(F)(F)C(F)(F)C(F)(F)C(F)(F)C(F)(F)C(F)(F)C(F)(F)F [PFHpS, perfluoroheptane sulfonic acid]
Serum PFAS level, 25 percentile [1, 3]: 0.96
Serum PFAS level, 75 percentile [1, 3]: 2.5
Serum PFAS level, Max [1, 3]: 6.2
Serum PFAS level, Median [1, 3]: 1.6
Serum PFAS level, Min [1, 3]: 0.49
Serum PFAS level, 25 percentile [1, 4]: 0.95
Serum PFAS level, 75 percentile [1, 4]: 2.1
Serum PFAS level, Max [1, 4]: 6.1
Serum PFAS level, Median [1, 4]: 1.5
Serum PFAS level, Min [1, 4]: 0.45
Serum PFAS level, 25 percentile [1, 5]: 0.94
Serum PFAS level, 75 percentile [1, 5]: 1.9
Serum PFAS level, Max [1, 5]: 6.3
Serum PFAS level, Median [1, 5]: 1.4
Serum PFAS level, Min [1, 5]: 0.47
Serum PFAS level, 25 percentile [1, 6]: 0.93
Serum PFAS level, 75 percentile [1, 6]: 2.1
Serum PFAS level, Max [1, 6]: 5.9
Serum PFAS level, Median [1, 6]: 1.5
Serum PFAS level, Min [1, 6]: 0.35
Serum PFAS level, 25 percentile [1, 7]: 1.1
Serum PFAS level, 75 percentile [1, 7]: 2.2
Serum PFAS level, Max [1, 7]: 6.2
Serum PFAS level, Median [1, 7]: 1.5
Serum PFAS level, Min [1, 7]: 0.45
Serum level in the first samples, median (range) [1]: 1.3 (0.28–6.2) ng/mL
PFAS in first serum sample, median (range) [1, 8]: 1.6 (0.49–6.2) ng/mL
PFAS in first serum sample, median (range) [1, 9]: 0.97 (0.28–1.9) ng/mL
Initial serum PFAS level, max ([1]; females (N=7)): 2.2 ng/mL
Initial serum PFAS level, median ([1]; females (N=7)): 1.1 ng/mL
Initial serum PFAS level, min ([1]; females (N=7)): 0.49 ng/mL
Relative composition of PFAS in serum, molar concentration basis [1]: 1.1%
Relative composition of PFAS in serum, weight basis [1]: 1.2%
Initial serum PFAS level, Max ([1]; males (N=19)): 6.2 ng/mL
Initial serum PFAS level, Min ([1]; males (N=19)): 0.28 ng/mL
Initial serum PFAS level, median ([1]; males (N=19)): 1.4 ng/mL
Serum concentration, molar basis [1]: 0.0029
Serum concentration, weight basis [1]: 1.3
Elimination rate ([2]; subject 1, 5 samples): 0.5 yearly
HL (half-life) ([2]; subject 1, 5 samples): 1.3 year
Elimination rate ([2]; subject 2, 5 samples): 0.2 yearly
HL (half-life) ([2]; subject 2, 5 samples): 3.4 year
Elimination rate ([2]; subject 3, 5 samples): 0.2 yearly
HL (half-life) ([2]; subject 3, 5 samples): 3.0 year
Elimination rate ([2]; subject 4, 5 samples): 0.001 yearly
Elimination rate ([2]; subject 5, 5 samples): −0.3 yearly
Elimination rate ([2]; subject 6, 4 samples): 0.1 yearly
HL (half-life) ([2]; subject 6, 4 samples): 6.1 year
Elimination rate ([2]; subject 7, 5 samples): −0.04 yearly
Elimination rate ([2]; subject 8, 5 samples): −0.6 yearly
Elimination rate ([2]; subject 9, 5 samples): 0.05 yearly
HL (half-life) ([2]; subject 9, 5 samples): 15 year
Elimination rate ([2]; subject 10, 5 samples): 0.4 yearly
HL (half-life) ([2]; subject 10, 5 samples): 1.8 year
Elimination rate ([2]; subject 11, 5 samples): 1.7 yearly
HL (half-life) ([2]; subject 11, 5 samples): 0.4 year
Elimination rate ([2]; subject 12, 5 samples): 0.6 yearly
HL (half-life) ([2]; subject 12, 5 samples): 1.1 year
Elimination rate ([2]; subject 13, 5 samples): −0.2 yearly
Elimination rate ([2]; subject 14, 4 samples): 1.0 yearly
HL (half-life) ([2]; subject 14, 4 samples): 0.7 year
Elimination rate ([2]; subject 15, 5 samples): 1.6 yearly
HL (half-life) ([2]; subject 15, 5 samples): 0.4 year
Elimination rate ([2]; subject 16, 5 samples): 0.1 yearly
HL (half-life) ([2]; subject 16, 5 samples): 12 year
Elimination rate ([2]; subject 17, 5 samples): 1.7 yearly
HL (half-life) ([2]; subject 17, 5 samples): 0.4 year
